Test results reported in patent US6313179A, “Treatment of hyperproliferative skin disorders with C18 to C20 aliphatic alcohols” (Avanir Pharmaceuticals, priority 1998, dated 2001).
Several values for one entry are separate records, joined by “and”; a condition that tells them apart may be missing. Equal values may be shown once. Read-outs that look alike come from different tables or passages of the source.

Tests used:
[1] = system: cutaneous Kaposi's sarcoma; experiment: Treatment of Kaposi's sarcoma with 10% n-docosanol cream (Example 6); format: in vivo, Human; conditions: 10% cream
Experimental: HIV-positive male patients presenting with treatment-resistant cutaneous Kaposi's sarcoma were treated for 28 days, 5 times daily with the 10% n-docosanol cream formulation described in Example 4. Response to treatment was evaluated according to lesion dimensions, color of the lesion and the type of lesion (hard, soft or nodule). The data were recorded on intermittent days throughout the 28 days of the study and values were compared to baseline observations made on Day 1. Three target lesions were evaluated in each patient. Thus far, five patients have completed the study.

herpes simplex virus = conditions: suspended in a surfactant; cell culture assays; cited from earlier work
[2] = concentrations up to 300 mM; cited from earlier work
[3] = system: respiratory syncytial virus; conditions: suspended in a surfactant; cell culture assays; cited from earlier work
[4] = system: normal skin fibroblast (ATCC CRL 1900) cells; experiment: Radiolabeled n-docosanol binding to normal skin fibroblasts (Example 3); format: cell-based; conditions: Table 4, n-[1-14C]docosanol 3 mM, 24 hours
Experimental: (§1) The following experiment examined the effect of n-docosanol on cell proliferation and quantitation of n-[1-^14 C]docosanol binding to keloid, Vero (normal African green monkey kidney; ATCC CCL 81) and normal skin fibroblast (ATCC CRL 1900) cells.
(§2) Human keloid fibroblasts, normal control skin fibroblasts and Vero cells were obtained from ATCC. n-Docosanol (30 mM) was suspended in Pluronic F-68 (1.2 mM) as described previously (Katz et al., ibid). A vehicle control was prepared using the same procedure except for the omission of n-docosanol. Radiolabeled n-[1-^14 C] docosanol suspension was prepared as described by Katz et al. (ibid.). Cells were resuspended in 1.2×10^6 cells/ml in DMEM supplemented with 10% fetal calf serum, sodium pyruvate, L-glutamine and penicillin-streptomycin. Cell suspension (0.5 ml) was added to each 35 mm well containing 1.3 ml media, followed by addition of 0.2 ml radiolabeled n-docosanol suspension (final n-docosanol concentration=3 mM). After 24 hours at 37° C. in humidified 10% CO2, the suspension was removed, wells were washed extensively with saline and cells were solubilized for scintillation counting by incubation with 0.5 ml trypsin for 15 min at 37° C. Solubilized cells were counted in a Beckman LS6000 scintillation counter. […] The number of viable cells was determined by trypan blue staining.

[5] = system: Vero (normal African green monkey kidney; ATCC CCL 81) cells; experiment: Radiolabeled n-docosanol binding to Vero cells (Example 3); format: cell-based; conditions: Table 4, n-[1-14C]docosanol 3 mM, 24 hours
Experimental: as §1, §2

[6] = system: Human fetal lung cells (HFL; ATCC CCL 153); experiment: Comparison of n-docosanol effect between keloid and normal cells: human fetal lung cells (Example 2); format: cell-based; conditions: 15 mM; for activity at 15000 µM: Homo sapiens, compared to cells incubated with no addition, read-out: % control; for activity at 15000 µM / cells/well: Table 3
Experimental: Human keloid fibroblasts were obtained from the American Type Culture Collection (Rockville, Md.) (CRL 1762). n-Docosanol (300 mM) was suspended in the nonionic surfactant Pluronic F-68 (12 mM) as described previously (Katz et al., Proc. Natl. Acad. Sci. U.S.A., 88:10825-10829, 1991, hereby incorporated by reference). A vehicle control was prepared using the same procedure except n-docosanol was omitted. Keloid cells (2.7×10^4per well) were added to 16 mm wells containing DMEM supplemented with 10% fetal calf serum (FCS), sodium pyruvate, L-glutamine and penicillin/streptomycin. n-Docosanol (15 mM) or the corresponding Pluronic F-68 control (0.6 mM) was added (total volume=2.0 ml). Cells were harvested after incubation for 72 and 168 hours at 37° C. in a humidified 10% CO2 incubator. The number of viable cells was determined by trypan blue staining.
Human fetal lung cells (HFL; ATCC CCL 153) and keloid cells (5×10^4 cells/well) were separately added to 16 mm wells and treated as described in Example 1. The results are shown in Tables 2 (keloid cells) and 3 (human fetal lung cells).

Human keloid fibroblasts = experiment: Radiolabeled n-docosanol binding to keloid cells (Example 3); format: cell-based; conditions: 24 hours
Experimental: (§3) Human keloid fibroblasts, normal control skin fibroblasts and Vero cells were obtained from ATCC. n-Docosanol (30 mM) was suspended in Pluronic F-68 (1.2 mM) as described previously (Katz et al., ibid). A vehicle control was prepared using the same procedure except for the omission of n-docosanol. Radiolabeled n-[1-^14 C] docosanol suspension was prepared as described by Katz et al. (ibid.). Cells were resuspended in 1.2×10^6 cells/ml in DMEM supplemented with 10% fetal calf serum, sodium pyruvate, L-glutamine and penicillin-streptomycin. Cell suspension (0.5 ml) was added to each 35 mm well containing 1.3 ml media, followed by addition of 0.2 ml radiolabeled n-docosanol suspension (final n-docosanol concentration=3 mM). After 24 hours at 37° C. in humidified 10% CO2, the suspension was removed, wells were washed extensively with saline and cells were solubilized for scintillation counting by incubation with 0.5 ml trypsin for 15 min at 37° C. Solubilized cells were counted in a Beckman LS6000 scintillation counter. Samples were corrected for nonspecific binding to plates by subtracting values obtained in control wells lacking cells. To determine cell number, duplicate plates were treated with non-radiolabeled n-docosanol or control suspension at the same concentration or were left untreated. The number of viable cells was determined by trypan blue staining.

[7] = system: normal skin fibroblast (ATCC CRL 1900) cells; experiment: Proliferation study, normal skin fibroblasts (Example 3); format: cell-based
Experimental: as §1, §3

[8] = one patient, Day 15 and thereafter

CCCCCCCCCCCCCCCCCCCCCCO [n-docosanol]
patients with a response (reduction in the size of the lesions) ([1]; Day 28 vs Day 1): three out of five | lesions with reduction in size, two patients ([1]; Day 28 vs Day 1, each of two patients): 3 out of 3 | lesions with reduction in size, one patient ([1]; Day 28 vs Day 1, one patient): 2 out of 3 | color changes in lesions ([1]; all five patients, all lesions): color changes in all lesions to a lighter color | increase in lesion size ([1]; any of the 15 lesions studied): not observed | disappearance of lesion ([1]; by Day 3, one lesion): One lesion completely disappeared by Day 3 | clinically observed swelling [1, 8]: decrease in the clinically observed swelling | pain of lesions [1, 8]: less painful | Day 28 Color ([1]; Table 5, 5 times daily, 28 days, per patient and lesion): pale and gone and pale pink and very pale and pink and tan and lighter | percent reduction in lesion size ([1]; Table 5, Day 28 vs Day 1, 5 times daily, per patient and lesion): 75% and gone and 74% and 19% and 20% and 0% and 28% and 10% | antiviral activity (herpes simplex virus): potent antiviral activity | cytotoxicity [2]: not cytotoxic in concentrations up to 300 mM | antiviral activity [3]: potent antiviral activity | Binding per 10^6 cells [4]: 15.6 μg | Binding per 10^6 cells [5]: 8.9 μg | number of human fetal lung cells (in words) ([6]; at both time intervals (72 and 168 hours)): significantly increased | activity at 15000 µM ([6]; 72 hours): 116% | activity at 15000 µM ([6]; 168 hours): 250% | cells/well ([6]; 72 hours): 5.8 × 10^4 cells/well | cells/well ([6]; 168 hours): 20 × 10^4 cells/well | amount of radiolabeled n-docosanol bound to keloid as compared to CRL 1900 cells (Human keloid fibroblasts; 3 mM, vs CRL 1900): About three | Binding per 10^6 cells (Human keloid fibroblasts; Table 4, Keloid, n-[1-14C]docosanol 3 mM): 45.5 μg | number of CRL-1900 normal skin fibroblasts (in words) ([7]; 3 mM, one day incubation): not decreased | activity at 3000 µM ([7]; Skin fibroblast, Table 4, CRL-1900, 3 mM, 24 hours, compared to cells incubated with no addition, read-out: % ctrl): 98% | No. cells ([7]; Table 4, CRL-1900, 3 mM, 24 hours): 5.4 × 10^5 cells | growth of normal cells (in words) ([7]; under the tissue culture conditions used, general statement on normal cells): unaffected
